Data from ChEMBL document CHEMBL1145268, “Synthesis and evaluation of 6-hydroxy-7-methoxy-4-chromanone- and chroman-2-carboxamides as antioxidants” (Bioorg Med Chem Lett, 2005).
pIC50: −log10 of the molar value.

Columns and labels:
Rattus norvegicus [1] = species on record: Rattus norvegicus; assay: Inhibition concentration against lipid peroxidation initiated by [Fe2+] and L-ascorbic acid in rat brain homogenates; type: functional
Rattus norvegicus [2] = species on record: Rattus norvegicus; assay: Inhibition concentration against DPPH radical scavenging activity […] was determined; type: functional

Row | SMILES | pIC50 (Rattus norvegicus [1]) | pIC50 (Rattus norvegicus [2])
1 | COc1cc2c(cc1O)C(=O)CC(C(N)=O)O2 (stereo unspecified) | < 3.52 | 3.67
2 | CCCNC(=O)C1CC(=O)c2cc(O)c(OC)cc2O1 (stereo unspecified) | < 3.52 | 4.09
3 | COc1cc2c(cc1O)CCC(C(=O)NCc1ccccc1)O2 (stereo unspecified) | 4.78 | 4.66
4 | CCCCNC(=O)C1CC(=O)c2cc(O)c(OC)cc2O1 (stereo unspecified) | 3.75 | 4.18
5 | COc1cc2c(cc1O)CCC(C(=O)O)O2 (stereo unspecified) | < 3.52 | 4.77
6 | COc1cc2c(cc1O)C(=O)CC(C(=O)O)O2 (stereo unspecified) | < 3.52 | 3.98
7 | COc1cc2c(cc1O)CCC(C(=O)Nc1ccccc1)O2 (stereo unspecified) | 5.16 | 4.60
8 | COc1cc2c(cc1O)CCC(C(=O)Nc1ccc([N+](=O)[O-])cc1)O2 (stereo unspecified) | 5.42 | 4.40
9 | CCCNC(=O)C1CCc2cc(O)c(OC)cc2O1 (stereo unspecified) | 3.92 | 4.37
10 | Cc1c(C)c2c(c(C)c1O)CCC(C)(C(=O)O)O2 (stereo unspecified) [TROLOX] | 3.78 | 4.74
11 | CCCCNC(=O)C1CCc2cc(O)c(OC)cc2O1 (stereo unspecified) | 4.29 | 4.61
12 | COc1cc2c(cc1O)C(=O)CC(C(=O)NCc1ccccc1)O2 (stereo unspecified) | < 3.52 | 3.93
13 | COc1cc2c(cc1O)C(=O)CC(C(=O)Nc1ccccc1)O2 (stereo unspecified) | 3.53 | 3.92
